Columns and labels:
[1] = system: HT-29 solid tumors; assay: In vivo anti-tumor assay; design: species or system nude mice
Source text: Male BALB/c nu/nu mice at 5 week of age (18 g) were purchased from Japan SLC, Inc. (Shizuoka, Japan). Mice receiving standard laboratory chow and water ad libitum were acclimatized for 1 week before inoculation with cancer cells. For in vivo experiments, human colon HT-29 cells (1×10^7 cells/mouse) were subcutaneously injected into nude mice. Mice bearing solid tumors that had grown to approximately 100 mm^3 in volume (tumor volume = length×width×height) at 12 days after implantation were used for the assessment of anti-tumor effects. They were divided randomly into five groups (n = 6/group). One of the five groups was a control group injected with 0.1 mL of phosphate buffered saline (PBS) alone, and other groups were injected with vitamin K3 (3), juglone (4), C18:1-acyl juglone (5f), and C18:1-acyl plumbagin (2f) dissolved in PBS at a dose of 5 mg/kg. The above administrations all took place between days 12–39 subsequent to implantation. All mice were injected subcutaneously 14 times at […] with the compound and PBS alone (control). Tumor growth was measured at 1-day intervals for 40 days after implantation. At the end of the in vivo anti-tumor assay, some mice treated with the test compounds and PBS were independently examined to observe major organs such as lung, heart, spleen, stomach, liver, pancreas, kidney, intestine, and brain.

[2] = target: T1, Calf TdT (Bos taurus, UniProt P06526); assay: TdT activity inhibition; format: biochemical; settings: 0.05 units enzyme; mean ± SD (n = 3)
T1 construct: purchased Takara Bio Inc. (Kyoto, Japan)
Source text: (§1) Pol α was purified from calf thymus by immunoaffinity column chromatography as described by Tamai et al.. Recombinant rat pol β was purified from Escherichia coli JMpβ5 as described by Date et al.. The human pol γ catalytic gene was cloned into pFastBac. Histidine-tagged enzyme was expressed using the BACTO-BAC HT Baculovirus Expression System according to the manufacturer's instructions (Life Technologies, Frederick, MD, USA) and purified using ProBound resin (Invitrogen Japan, Tokyo Japan). Human pols δ and ε were purified by nuclear fractionation of human peripheral blood cancer cells (Molt-4) using the second subunit of pol δ and ε-conjugated affinity column chromatography, respectively. A truncated form of human pol η (residues 1–511) tagged with His6 at its C-terminal was expressed in E. coli cells and purified as described by Kusumoto et al.. A recombinant mouse pol ι tagged with His6 at its C-terminal was expressed and purified by Ni–NTA column chromatography. […]
(§2) The chemically synthesized 5-O-acyl plumbagins (2a–j) were dissolved in distilled dimethyl sulfoxide (DMSO) to various concentrations and sonicated for 30 s. […] Activity without inhibitor was considered 100%, and the relative activity was determined for each inhibitor concentration. […]

[3] = target: T2, Taq pol (Thermus aquaticus, UniProt P19821); assay: DNA polymerase activity inhibition; format: biochemical
T2 construct: purchased Takara Bio Inc. (Kyoto, Japan)
Source text: (§3) Pol α was purified from calf thymus by immunoaffinity column chromatography as described by Tamai et al.. Recombinant rat pol β was purified from Escherichia coli JMpβ5 as described by Date et al.. The human pol γ catalytic gene was cloned into pFastBac. Histidine-tagged enzyme was expressed using the BACTO-BAC HT Baculovirus Expression System according to the manufacturer's instructions (Life Technologies, Frederick, MD, USA) and purified using ProBound resin (Invitrogen Japan, Tokyo Japan). Human pols δ and ε were purified by nuclear fractionation of human peripheral blood cancer cells (Molt-4) using the second subunit of pol δ and ε-conjugated affinity column chromatography, respectively. A truncated form of human pol η (residues 1–511) tagged with His6 at its C-terminal was expressed in E. coli cells and purified as described by Kusumoto et al.. A recombinant mouse pol ι tagged with His6 at its C-terminal was expressed and purified by Ni–NTA column chromatography. A truncated form of pol κ (residues 1–560) with 6× His-tags attached at the C-terminus was overexpressed in E. coli and purified as described by Ohashi et al.. Recombinant human His-pol λ was overexpressed and purified according to a method described by Shimazaki et al.. Recombinant human His-pol μ was overexpressed in E. coli BL21 and purified using Glutathione Sepharose 4B (GE Healthcare Bio-Science Corp., Piscataway, NJ, USA) column chromatography according to the method for pol λ preparation by Shimazaki et al.. Pol α from a higher plant, cauliflower, was purified from the inflorescence structure according to the methods outlined by Sakaguchi et al.. Recombinant rice (Oryza sativa L. cv. Nipponbare) pol λ tagged with His6 at the C-terminus was expressed in E. coli and purified as described by Uchiyama et al.. Calf TdT, Taq pol, T4 pol, T7 RNA polymerase, and T4 polynucleotide kinase were purchased from Takara Bio Inc. (Kyoto, Japan). The Klenow fragment of pol I from E. coli was purchased from Worthington Biochemical Corp. (Freehold, NJ, USA). Bovine pancreas deoxyribonuclease I was obtained from Stratagene Cloning Systems (La Jolla, CA, USA).
(§4) The reaction mixtures for calf pol α, rat pol β, plant pol α, and prokaryotic pols have been described previously, [35]; those for pol γ as well as pols δ and ε were previously described by Umeda et al. and Ogawa et al., respectively. Those for pols η, ι, and κ were the same as for pol α, and those for pols λ and μ were the same as for pol β. For the pol reactions, poly(dA)/oligo(dT)18 (A/T, 2/1) and dTTP were used as the DNA template-primer substrate and nucleotide (dNTP; 2′-deoxynucleoside-5′-triphosphate) substrate, respectively. For the TdT reactions, oligo(dT)18 (3′-OH) and dTTP were used as the DNA primer substrate and nucleotide substrate, respectively.
(§5) The chemically synthesized 5-O-acyl plumbagins (2a–j) were dissolved in distilled dimethyl sulfoxide (DMSO) to various concentrations and sonicated for 30 s. Subsequently, 4 µL aliquots were mixed with 16 µL of each enzyme (0.05 units) in 50 mM Tris-HCl at pH 7.5, containing 1 mM dithiothreitol, 50% glycerol (by vol), and 0.1 mM ethylenediaminetetraacetic acid and held at 0°C for 10 min. These inhibitor-enzyme mixtures in 8 µL volumes were next added to 16 µL of enzyme standard reaction mixture and incubated at 37°C for 60 min, except for Taq pol, which was incubated at 74°C for 60 min. Activity without inhibitor was considered 100%, and the relative activity was determined for each inhibitor concentration. One unit of pol activity was defined as the amount of each enzyme that catalyzed the incorporation of 1 nmol dTTP into synthetic DNA template primers in 60 min, at 37°C, and under standard reaction conditions, [35].

[4] = target: T3, T4 pol (Enterobacteria phage T4, UniProt P04415); assay: DNA polymerase activity inhibition; format: biochemical
T3 construct: purchased Takara Bio Inc. (Kyoto, Japan)
Source text: as §3, §4, §5

[5] = target: Cauliflower pol α (Brassica oleracea var. botrytis, UniProt A0A0D3D890); assay: DNA polymerase activity inhibition; format: biochemical
Source text: as §3, §4, §5

[6] = target: T4, Human pol η (Homo sapiens, UniProt Q9Y253); assay: DNA polymerase activity inhibition; format: biochemical; settings: 0.05 units enzyme; mean ± SD (n = 3)
T4 construct: A truncated form of human pol η (residues 1–511) tagged with His6 at its C-terminal; His6 (C); made in house; host or cells: E. coli
Source text: as §3, §4, §5

[7] = target: T5, Rice pol λ (Oryza sativa subsp. japonica, UniProt Q67VC8); assay: DNA polymerase activity inhibition; format: biochemical, rice (Oryza sativa L. cv. Nipponbare)
T5 construct: His6 (C); made in house; host or cells: E. coli
Source text: as §1, §2

T5 sequence (Q67VC8 whole entry): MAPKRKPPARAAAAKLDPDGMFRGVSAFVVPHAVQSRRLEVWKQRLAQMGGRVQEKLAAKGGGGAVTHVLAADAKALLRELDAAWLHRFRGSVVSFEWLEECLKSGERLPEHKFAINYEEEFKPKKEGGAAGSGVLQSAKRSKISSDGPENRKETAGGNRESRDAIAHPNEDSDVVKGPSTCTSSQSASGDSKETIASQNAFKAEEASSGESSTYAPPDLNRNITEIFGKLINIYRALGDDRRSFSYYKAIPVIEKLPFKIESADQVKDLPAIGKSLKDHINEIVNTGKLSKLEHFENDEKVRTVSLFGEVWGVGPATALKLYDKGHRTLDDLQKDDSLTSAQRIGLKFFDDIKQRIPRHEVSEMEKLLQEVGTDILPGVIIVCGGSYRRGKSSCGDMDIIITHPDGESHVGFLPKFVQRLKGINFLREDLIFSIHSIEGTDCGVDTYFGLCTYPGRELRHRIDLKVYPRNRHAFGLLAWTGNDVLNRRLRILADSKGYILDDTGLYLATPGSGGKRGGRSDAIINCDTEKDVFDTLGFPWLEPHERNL
T2 sequence (P19821 whole entry): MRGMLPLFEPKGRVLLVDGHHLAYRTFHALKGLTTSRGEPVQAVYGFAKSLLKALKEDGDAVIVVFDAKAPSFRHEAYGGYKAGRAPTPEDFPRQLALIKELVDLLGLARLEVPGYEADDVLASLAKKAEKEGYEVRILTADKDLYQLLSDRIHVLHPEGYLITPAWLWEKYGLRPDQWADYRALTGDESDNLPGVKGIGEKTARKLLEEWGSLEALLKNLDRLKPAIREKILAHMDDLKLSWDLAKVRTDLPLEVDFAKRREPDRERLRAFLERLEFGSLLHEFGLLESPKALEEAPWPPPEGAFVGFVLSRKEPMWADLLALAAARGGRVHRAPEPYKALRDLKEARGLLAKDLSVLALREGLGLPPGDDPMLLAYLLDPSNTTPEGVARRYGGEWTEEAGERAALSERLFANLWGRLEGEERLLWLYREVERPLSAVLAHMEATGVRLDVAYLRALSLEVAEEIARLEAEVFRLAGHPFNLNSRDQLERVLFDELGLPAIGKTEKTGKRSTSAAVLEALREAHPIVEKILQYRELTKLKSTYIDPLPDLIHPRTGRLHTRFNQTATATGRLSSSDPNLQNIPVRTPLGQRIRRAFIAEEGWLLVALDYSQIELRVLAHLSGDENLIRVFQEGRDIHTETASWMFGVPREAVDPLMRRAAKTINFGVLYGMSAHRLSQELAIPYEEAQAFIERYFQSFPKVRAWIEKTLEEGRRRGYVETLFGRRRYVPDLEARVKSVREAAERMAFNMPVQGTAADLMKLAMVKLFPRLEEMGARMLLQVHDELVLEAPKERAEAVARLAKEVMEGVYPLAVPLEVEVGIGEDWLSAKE
T3 sequence (P04415 whole entry): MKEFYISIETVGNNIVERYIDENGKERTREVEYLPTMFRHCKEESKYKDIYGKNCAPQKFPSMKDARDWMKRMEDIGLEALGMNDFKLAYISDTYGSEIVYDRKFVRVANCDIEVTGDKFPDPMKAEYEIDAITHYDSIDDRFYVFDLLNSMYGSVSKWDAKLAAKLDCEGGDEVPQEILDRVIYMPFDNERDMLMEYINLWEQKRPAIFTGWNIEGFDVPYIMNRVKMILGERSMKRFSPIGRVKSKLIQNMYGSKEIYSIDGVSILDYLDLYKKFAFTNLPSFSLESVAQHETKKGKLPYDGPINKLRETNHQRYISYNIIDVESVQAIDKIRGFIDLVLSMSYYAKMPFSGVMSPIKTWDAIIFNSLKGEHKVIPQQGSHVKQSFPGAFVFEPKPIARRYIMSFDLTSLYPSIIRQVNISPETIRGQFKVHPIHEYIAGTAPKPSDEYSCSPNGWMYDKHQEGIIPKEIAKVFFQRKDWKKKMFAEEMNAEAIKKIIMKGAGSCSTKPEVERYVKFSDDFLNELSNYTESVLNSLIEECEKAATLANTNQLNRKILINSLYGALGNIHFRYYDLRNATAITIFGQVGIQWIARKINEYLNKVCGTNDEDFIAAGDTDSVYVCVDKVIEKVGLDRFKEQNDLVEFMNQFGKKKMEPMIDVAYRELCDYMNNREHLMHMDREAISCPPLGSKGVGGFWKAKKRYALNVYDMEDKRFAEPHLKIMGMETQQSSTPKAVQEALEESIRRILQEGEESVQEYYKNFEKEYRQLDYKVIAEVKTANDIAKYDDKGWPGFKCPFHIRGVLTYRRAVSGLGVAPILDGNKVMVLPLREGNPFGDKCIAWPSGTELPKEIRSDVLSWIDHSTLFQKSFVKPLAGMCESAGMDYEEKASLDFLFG
Sequence of Cauliflower pol α (A0A0D3D890 entry or part of it): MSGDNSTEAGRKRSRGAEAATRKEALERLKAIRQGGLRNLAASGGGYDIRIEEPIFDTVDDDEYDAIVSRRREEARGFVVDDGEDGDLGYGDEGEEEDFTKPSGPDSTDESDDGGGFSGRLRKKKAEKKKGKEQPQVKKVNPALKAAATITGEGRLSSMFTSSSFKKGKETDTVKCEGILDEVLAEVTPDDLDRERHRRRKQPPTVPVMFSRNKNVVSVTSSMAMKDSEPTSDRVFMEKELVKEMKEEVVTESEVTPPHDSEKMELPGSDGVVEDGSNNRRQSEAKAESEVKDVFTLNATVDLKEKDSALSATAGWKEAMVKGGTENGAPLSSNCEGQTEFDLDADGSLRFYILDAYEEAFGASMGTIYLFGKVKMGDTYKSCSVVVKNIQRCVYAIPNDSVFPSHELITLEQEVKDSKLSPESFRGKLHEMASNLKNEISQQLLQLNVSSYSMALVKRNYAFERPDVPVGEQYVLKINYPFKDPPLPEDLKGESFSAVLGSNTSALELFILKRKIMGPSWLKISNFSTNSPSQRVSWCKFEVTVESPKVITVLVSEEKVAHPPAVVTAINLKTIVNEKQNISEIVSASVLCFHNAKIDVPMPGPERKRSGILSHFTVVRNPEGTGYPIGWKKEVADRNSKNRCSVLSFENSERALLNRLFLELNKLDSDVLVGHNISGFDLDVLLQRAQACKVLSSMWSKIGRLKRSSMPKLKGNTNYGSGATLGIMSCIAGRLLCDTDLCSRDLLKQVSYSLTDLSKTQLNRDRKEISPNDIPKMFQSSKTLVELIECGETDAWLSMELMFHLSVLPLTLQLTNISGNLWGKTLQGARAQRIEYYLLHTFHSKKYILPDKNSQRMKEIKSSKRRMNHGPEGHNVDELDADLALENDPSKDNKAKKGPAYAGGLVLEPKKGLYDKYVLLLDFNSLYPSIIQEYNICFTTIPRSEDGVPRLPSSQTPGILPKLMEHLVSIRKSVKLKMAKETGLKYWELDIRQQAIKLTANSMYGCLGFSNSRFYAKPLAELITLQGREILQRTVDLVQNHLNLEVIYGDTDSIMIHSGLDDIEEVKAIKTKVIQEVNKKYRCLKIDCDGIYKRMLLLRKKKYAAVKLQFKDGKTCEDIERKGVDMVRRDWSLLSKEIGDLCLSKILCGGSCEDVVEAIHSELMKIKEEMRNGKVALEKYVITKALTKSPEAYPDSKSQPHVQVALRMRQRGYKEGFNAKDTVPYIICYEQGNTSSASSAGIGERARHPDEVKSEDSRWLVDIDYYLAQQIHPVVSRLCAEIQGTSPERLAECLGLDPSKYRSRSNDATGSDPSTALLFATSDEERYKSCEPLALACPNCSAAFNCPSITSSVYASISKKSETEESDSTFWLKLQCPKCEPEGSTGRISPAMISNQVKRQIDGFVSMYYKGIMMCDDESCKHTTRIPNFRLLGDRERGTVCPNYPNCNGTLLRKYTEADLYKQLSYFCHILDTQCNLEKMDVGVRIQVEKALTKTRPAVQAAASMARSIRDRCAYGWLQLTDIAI
T4 sequence (Q9Y253 1-511): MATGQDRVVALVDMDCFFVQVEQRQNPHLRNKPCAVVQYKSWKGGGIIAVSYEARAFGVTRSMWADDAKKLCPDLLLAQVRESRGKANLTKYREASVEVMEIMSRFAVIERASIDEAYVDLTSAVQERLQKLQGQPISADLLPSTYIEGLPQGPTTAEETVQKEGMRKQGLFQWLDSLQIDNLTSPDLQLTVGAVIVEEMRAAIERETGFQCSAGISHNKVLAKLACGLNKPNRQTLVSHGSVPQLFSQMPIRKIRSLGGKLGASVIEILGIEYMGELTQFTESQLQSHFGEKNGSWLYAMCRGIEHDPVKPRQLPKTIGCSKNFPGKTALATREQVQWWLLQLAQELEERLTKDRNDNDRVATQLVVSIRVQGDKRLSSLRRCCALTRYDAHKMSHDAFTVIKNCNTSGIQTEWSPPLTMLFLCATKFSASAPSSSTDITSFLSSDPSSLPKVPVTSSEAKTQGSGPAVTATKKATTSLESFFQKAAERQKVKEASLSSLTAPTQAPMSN
T1 sequence (P06526 whole entry): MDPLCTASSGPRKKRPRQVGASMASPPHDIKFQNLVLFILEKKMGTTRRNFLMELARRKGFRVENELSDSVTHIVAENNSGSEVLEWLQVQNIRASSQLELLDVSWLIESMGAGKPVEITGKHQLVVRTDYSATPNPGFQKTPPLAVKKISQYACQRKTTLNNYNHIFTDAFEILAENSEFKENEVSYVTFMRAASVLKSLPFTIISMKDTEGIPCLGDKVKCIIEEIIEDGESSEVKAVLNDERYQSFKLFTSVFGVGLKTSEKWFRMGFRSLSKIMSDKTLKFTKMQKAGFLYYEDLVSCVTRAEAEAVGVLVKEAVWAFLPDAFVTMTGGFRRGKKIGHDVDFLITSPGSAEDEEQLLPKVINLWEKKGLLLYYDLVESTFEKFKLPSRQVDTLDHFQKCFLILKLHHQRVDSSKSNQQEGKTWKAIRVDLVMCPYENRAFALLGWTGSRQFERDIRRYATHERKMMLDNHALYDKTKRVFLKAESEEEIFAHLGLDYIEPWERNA

CCCCCCCC/C=C\CCCCCCCC(=O)Oc1cccc2c1C(=O)C=C(C)C2=O [2f, 5-O-oleoyl-2-methyl-1,4-naphthoquinone]
anti-tumor effect, fold stronger than the other compounds tested ([1]; 5 mg/kg, versus vitamin K3, juglone, C18:1-acyl juglone): > 3 fold
decreased rates of tumor volume ([1]; at 40 days, 5 mg/kg subcutaneously in PBS, versus PBS control, n = 6): 30.5%
IC50 [2]: 10.6 ± 0.5 µM
effect on enzyme activity (in words) [3]: had no effect
IC50 ([3]; 0.05 units enzyme, 74°C): > 100 µM
effect on enzyme activity (in words) [4]: had no effect
IC50 ([4]; 0.05 units enzyme): > 100 µM
effect on enzyme activity (in words) [5]: had no effect
IC50 [6]: 7.9 ± 0.42 µM
effect on enzyme activity (in words) [7]: had no effect
IC50 ([7]; 0.05 units enzyme): > 100 µM

From paper PMC3919815, “Anti-Tumor Effects of Novel 5-O-Acyl Plumbagins Based on the Inhibition of Mammalian DNA Replicative Polymerase Activity” (PLoS ONE, 2014)
